Test results reported in ChEMBL document CHEMBL1126461, “Biologically active heparin-like fragments with a non-glycosaminoglycan structure. Part 3 : o-alkylated-o-sulphated pentasaccharides” (Bioorg Med Chem Lett, 1992).

Molecular target: Coagulation factor X (Homo sapiens) (UniProt P00742)
Test: Compound was evaluated for the inhibition of anti-thrombin III (AT III)-mediated coagulation proteinase factor Xa

Sequence of Coagulation factor X (Homo sapiens) (P00742 41-179 limits assumed): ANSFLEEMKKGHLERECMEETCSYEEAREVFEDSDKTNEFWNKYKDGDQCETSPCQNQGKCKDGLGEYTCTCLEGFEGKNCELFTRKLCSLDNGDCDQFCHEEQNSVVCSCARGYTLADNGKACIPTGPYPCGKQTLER
Sequence of Coagulation factor X (Homo sapiens) (P00742 235-488 limits assumed): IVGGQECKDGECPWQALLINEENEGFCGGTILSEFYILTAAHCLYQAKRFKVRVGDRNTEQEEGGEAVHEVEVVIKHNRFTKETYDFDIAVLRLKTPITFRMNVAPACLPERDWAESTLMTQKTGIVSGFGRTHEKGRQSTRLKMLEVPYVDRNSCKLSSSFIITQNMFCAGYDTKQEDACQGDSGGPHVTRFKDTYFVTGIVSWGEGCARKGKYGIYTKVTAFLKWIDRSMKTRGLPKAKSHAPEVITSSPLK

| Activity [U mg-1] | Compound |
| --- | --- |
| 1320 | CO[C@H]1O[C@H](COS(=O)(=O)O)[C@@H](O[C@@H]2O[C@@H](C(=O)O)[C@@H](O[C@@H]3O[C@H](COS(=O)(=O)O)[C@@H](O[C@@H]4O[C@H](C(=O)O)[C@@H](O[C@@H]5O[C@H](COS(=O)(=O)O)[C@@H](OC)[C@H](OC)[C@H]5OS(=O)(=O)O)[C@H](OC)[C@H]4OC)[C@H](OS(=O)(=O)O)[C@H]3OS(=O)(=O)O)[C@H](OC)[C@H]2OS(=O)(=O)O)[C@H](OS(=O)(=O)O)[C@H]1OS(=O)(=O)O |
| 1500 | CCCCO[C@@H]1[C@@H](OS(=O)(=O)O)[C@H](O[C@H]2[C@H](OC)[C@@H](OC)[C@H](O[C@H]3[C@H](OS(=O)(=O)O)[C@@H](OS(=O)(=O)O)[C@H](O[C@H]4[C@H](OC)[C@@H](OS(=O)(=O)O)[C@H](O[C@H]5[C@H](OS(=O)(=O)O)[C@@H](OS(=O)(=O)O)[C@@H](OC)O[C@@H]5COS(=O)(=O)O)O[C@H]4C(=O)O)O[C@@H]3COS(=O)(=O)O)O[C@@H]2C(=O)O)O[C@H](COS(=O)(=O)O)[C@H]1OCCCC |
| 700 | CCCCCCCCO[C@@H]1[C@@H](OS(=O)(=O)O)[C@H](O[C@H]2[C@H](OS(=O)(=O)O)[C@@H](OS(=O)(=O)O)[C@@H](OC)O[C@@H]2COS(=O)(=O)O)O[C@@H](C(=O)O)[C@H]1O[C@@H]1O[C@H](COS(=O)(=O)O)[C@@H](O[C@@H]2O[C@H](C(=O)O)[C@@H](O[C@@H]3O[C@H](COS(=O)(=O)O)[C@@H](OC)[C@H](OC)[C@H]3OS(=O)(=O)O)[C@H](OCCCC)[C@H]2OCCCC)[C@H](OS(=O)(=O)O)[C@H]1OS(=O)(=O)O |
| 434 | CO[C@H]1O[C@H](COS(=O)(=O)O)[C@@H](O[C@@H]2O[C@@H](C(=O)O)[C@@H](O[C@@H]3O[C@H](COS(=O)(=O)O)[C@@H](O[C@@H]4O[C@H](C(=O)O)[C@@H](O[C@@H]5O[C@H](COS(=O)(=O)O)[C@@H](OC)[C@H](OC)[C@H]5OS(=O)(=O)O)[C@H](OC)[C@H]4OC)[C@H](OS(=O)(=O)O)[C@H]3OS(=O)(=O)O)[C@H](OCCCc3ccccc3)[C@H]2OS(=O)(=O)O)[C@H](OS(=O)(=O)O)[C@H]1OS(=O)(=O)O |
| 994 | CCCCO[C@@H]1[C@@H](OS(=O)(=O)O)[C@H](O[C@H]2[C@H](OS(=O)(=O)O)[C@@H](OS(=O)(=O)O)[C@@H](OC)O[C@@H]2COS(=O)(=O)O)O[C@@H](C(=O)O)[C@H]1O[C@@H]1O[C@H](COS(=O)(=O)O)[C@@H](O[C@@H]2O[C@H](C(=O)O)[C@@H](O[C@@H]3O[C@H](COS(=O)(=O)O)[C@@H](OC)[C@H](OC)[C@H]3OS(=O)(=O)O)[C@H](OC)[C@H]2OC)[C@H](OS(=O)(=O)O)[C@H]1OS(=O)(=O)O |
| 1250 | CO[C@H]1O[C@H](COS(=O)(=O)O)[C@@H](O[C@@H]2O[C@@H](C(=O)O)[C@@H](O[C@@H]3O[C@H](COS(=O)(=O)O)[C@@H](O[C@@H]4O[C@H](C(=O)O)[C@@H](O[C@@H]5O[C@H](COS(=O)(=O)O)[C@@H](O)[C@H](O)[C@H]5NS(=O)(=O)O)[C@H](O)[C@H]4O)[C@H](OS(=O)(=O)O)[C@H]3NS(=O)(=O)O)[C@H](O)[C@H]2OS(=O)(=O)O)[C@H](OS(=O)(=O)O)[C@H]1NS(=O)(=O)O |
| 1100 | CCCCO[C@@H]1[C@@H](OCCCC)[C@H](O[C@H]2[C@H](OS(=O)(=O)O)[C@@H](OS(=O)(=O)O)[C@H](O[C@H]3[C@H](OC)[C@@H](OS(=O)(=O)O)[C@H](O[C@H]4[C@H](OS(=O)(=O)O)[C@@H](OS(=O)(=O)O)[C@@H](OC)O[C@@H]4COS(=O)(=O)O)O[C@H]3C(=O)O)O[C@@H]2COS(=O)(=O)O)O[C@H](C(=O)O)[C@H]1O[C@@H]1O[C@H](COS(=O)(=O)O)[C@@H](OC)[C@H](OC)[C@H]1OS(=O)(=O)O |
